Patent US7452865B2, “Antagonistic analogs of GH RH (2003)” (The Administrare's of the Tulane Educational Fund, priority 2004, dated 2008)
“And” between values parts separate entries of the source, which are not always exact repeats. Equal entries are not always repeated. Square brackets hold non-standard residues; d marks the D form. Peptide text beside a SMILES is read from it. * marks the point of attachment. Phe(4-Cl) = N[C@@H](Cc1ccc(Cl)cc1)C(=O)O; hArg = N=C(N)NCCCC[C@H](N)C(=O)O; Nle = CCCC[C@H](N)C(=O)O; Abu = CC[C@H](N)C(=O)O; PhAc = O=C(Cc1ccccc1)*

System: hGH-RH(1-29)NH2 induced GH release
Assay: Inhibition of GH release in superfused rat pituitary system
Assay type: cell-based
Method: The analogs were tested in vitro in a test described earlier (S. Vigh and A. V Schally, Peptides 5:241-[…], 1984) with modification (Z. Rekasi and A. V. Schally, P.N.A.S. 90:2146-2149, 1993).
Briefly, the cells are preincubated with peptides for 9 minutes (3 mL) at various concentrations. Immediately after the incubation, 1 nM hGH-RH(1-29)NH2 is administered for 3 minutes (1 mL) 10 minute response). To check the duration of the antagonistic effect of the analogue, 1 nM hGH-RH(1-29)NH2 is applied 30, 60, 90, and 120 minutes later for 3 minutes [30, 60, 90, 120 min responses]. Net integral values of the GH responses are evaluated. GH responses are compared to and expressed as percent of the original GH response induced by 1 nM GH-RH(1-29)NH2 The effect of the new antagonists are compared to that of [Ac-Tyr^1, D-Arg^2]hGH-RH(1-29)NH2, the “Standard antagonist”.
Rat GH levels in aliquots of undiluted and diluted superfusion samples were measured by double-antibody radioimmunoassay using materials supplied by the National Hormone and Pituitary Program, Baltimore, Md. The results of RIA were analyzed with a computer program developed in our institute (V. Csernus and A. V. Schally, in Neuroendocrine Research Methods, Harwood Academic (Greenstein, B. D. ed., London, pp. 71-109, 1991), hereby incorporated by reference.

[1] = antagonist 30 nM, 1 nM hGH-RH(1-29)NH2 at 0 min
[2] = antagonist 30 nM, 1 nM hGH-RH(1-29)NH2 at 30 min
[3] = antagonist 30 nM, 1 nM hGH-RH(1-29)NH2 at 60 min
[4] = antagonist 30 nM, 1 nM hGH-RH(1-29)NH2 at 90 min
[5] = antagonist 30 nM, 1 nM hGH-RH(1-29)NH2 at 120 min

Compound	GH response (% of control) 0 min [1]	GH response (% of control) 30 min [2]	GH response (% of control) 60 min [3]	GH response (% of control) 90 min [4]	GH response (% of control) 120 min [5]	GH response (% of control) 0 min (antagonist 10 nM, 0 min)	GH response (% of control) 30 min (antagonist 10 nM, 30 min)	GH response (% of control) 60 min (antagonist 10 nM, 60 min)	GH response (% of control) 90 min (antagonist 10 nM, 90 min)	GH response (% of control) 120 min (antagonist 10 nM, 120 min)	endocrine antagonistic potency: inhibition of the GH release stimulated by hGH-RH(1-29)NH2 (in words) (general statement, in vitro and in vivo)
[Ipa-Tyr^1, D-Arg^2, Phe(pCl)^6, Har^9, Tyr(Me)^10, Abu^15, Nle^27, D-Arg^28, Har^29, Har^30]hGH-RH(1-30)NH2 [Peptide 55]	93 % of control	63 % of control	96 % of control	61 % of control	93 % of control	–	–	–	–	–	–
[Hca-Tyr^1, D-Arg^2, Phe(pCl)^6, Har^9, Tyr(Me)^10, Abu^15, Nle^27, D-Arg^28, Har^29, Agm^30]hGH-RH(1-30) [Peptide 59]	72 % of control and 61 % of control and 93 % of control and 47 % of control	49 % of control and 50 % of control and 43 % of control and 27 % of control	46 % of control and 48 % of control and 60 % of control and 37 % of control	38 % of control and 47 % of control and 57 % of control and 44 % of control	76 % of control and 47 % of control	–	–	–	–	–	–
[PhAc-Tyr^1, D-Arg^2, Phe(pCl)^6, Arg^9, Abu^15, Nle^27, D-Arg^28, Har^29]hGH-RH(1-29)NHEt [Peptide 48]	22 % of control	21 % of control	44 % of control	44 % of control	47 % of control	–	–	–	–	–	–
[Hca-Tyr^1, D-Arg^2, Phe(pCl)^6, Har^9, Tyr(Me)^10, Abu^15, Nle^27, D-Arg^28, Har^29, Har^30]hGH-RH(1-30)NHEt [Peptide 56]	76 % of control	83 % of control	92 % of control	80 % of control	68 % of control	–	–	–	–	–	–
[PhAc-Tyr^1, D-Arg^2, Phe(pCl)^6, Har^9, Tyr(Me)^10, Amp^11, Abu^15, Nle^27, D-Arg^28, Har^29]hGH-RH(1-29)NH2 [Peptide 64]	59 % of control	54 % of control	70 % of control	50 % of control	56 % of control	–	–	–	–	–	–
CCCC[C@H](NC(=O)[C@@H](NC(=O)[C@H](CC(=O)O)NC(=O)[C@H](CCC(N)=O)NC(=O)[C@H](CC(C)C)NC(=O)[C@H](CC(C)C)NC(=O)[C@H](CCCCN)NC(=O)[C@H](CCCNC(=N)N)NC(=O)[C@H](C)NC(=O)[C@H](CO)NC(=O)[C@H](CC(C)C)NC(=O)[C@H](CCC(N)=O)NC(=O)[C@H](CC)NC(=O)[C@H](CC(C)C)NC(=O)[C@@H](NC(=O)[C@H](CCCCN)NC(=O)[C@H](CCCNC(=N)N)NC(=O)[C@H](Cc1ccc(O)cc1)NC(=O)[C@H](CCCNC(=N)N)NC(=O)[C@H](CC(N)=O)NC(=O)[C@@H](NC(=O)[C@H](Cc1ccc(Cl)cc1)NC(=O)[C@@H](NC(=O)[C@H](C)NC(=O)[C@H](CC(=O)O)NC(=O)[C@@H](CCCNC(=N)N)NC(=O)[C@H](Cc1ccc(O)cc1)NC(=O)Cc1ccccc1)[C@@H](C)CC)[C@@H](C)O)C(C)C)[C@@H](C)CC)C(=O)N[C@H](CCCNC(=N)N)C(=O)N[C@@H](CCCCNC(=N)N)C(N)=O [JV-1-36, reference compound] (PhAc-Y[dR]DAI[Phe(4-Cl)]TNRYRKVL[Abu]QLSARKLLQDI[Nle][dR][hArg]-NH2; N-terminus and C-terminus assumed)	36 % of control	21 % of control	25 % of control	29 % of control	29 % of control	80 % of control	42 % of control	60 % of control	64 % of control	85 % of control	–
[PhAc-Tyr^1, D-Arg^2, Phe(pCl)^6, Har^9, 3-Pal^10, Abu^15, Nle^27, D-Arg^28, Har^29]hGH-RH(1-29)NH2 [Peptide 40]	42 % of control	29 % of control	26 % of control	36 % of control	30 % of control	–	–	–	–	–	–
[PhAc-Tyr^1, D-Arg^2, Phe(pCl)^6, Har^9, Tyr(Me)^10, Aib^15, Nle^27, D-Arg^28, Har^29]hGH-RH(1-29)NHEt [Peptide 49]	83 % of control	76 % of control	90 % of control	87 % of control	120 % of control	–	–	–	–	–	–
[PhAc-Tyr^1, D-Arg^2, Phe(pCl)^6, Arg^9, Abu^15, Nle^27, Har^28, D-Arg^29, hGH-RH(1-29)NH2 [Peptide 15]	28 % of control	13 % of control	11 % of control	36 % of control	21 % of control	–	–	–	–	–	–
[Hca-Tyr^1, D-Arg^2, Phe(pCl)^6, Har, Tyr(Me)^10, Abu^15, Nle^27, D-Arg^28, Har^29, Har^30]hGH-RH(1-30)NH2 [Peptide 53]	43 % of control	42 % of control	40 % of control	36 % of control	46 % of control	–	–	–	–	–	–
[PhAc-Tyr^1, D-Arg^2, Phe(pCl)^6, Har^9, Tyr(Me)^10, Har^11, Abu^15, Nle^27, D-Arg^28, Har^29]hGH-RH(1-29)NH2 [Peptide 63]	53 % of control	47 % of control	49 % of control	51 % of control	–	–	–	–	–	–	–
[CH3(CH2)14CO-Phe^0, D-Arg^2, Phe(pCl)^6, Arg^9, Abu^15, Nle^27, D-Arg^28, Har^29]hGH-RH(1-29)NH2 [Peptide 16]	40 % of control	62 % of control	78 % of control	73 % of control	61 % of control	–	–	–	–	–	–
[PhAc-Tyr^1, D-Arg^2, Phe(pCl)^6, Arg^9, Cha^10, Abu^15, Nle^27, D-Arg^28, Har^29]hGH-RH(1-29)NH2 [Peptide 33]	97 % of control	89 % of control	78 % of control	97 % of control	82 % of control	–	–	–	–	–	–
[PhAc-Tyr^1, D-Arg^2, Phe(pCl)^6, Cit^8, Arg^9, Abu^15, Nle^27, D-Arg^28, Har^29]hGH-RH(1-29)NH2 [Peptide 21]	0 % of control	13 % of control	33 % of control	43 % of control	37 % of control	–	–	–	–	–	high endocrine antagonistic potencies
[PhAc-Tyr^1, D-Arg^2, Phe(pCl)^6, Amp^9, Abu^15, Nle^27, D-Arg^28, Har^29]hGH-RH(1-29)NH2 [Peptide 68]	37 % of control	22 % of control	33 % of control	29 % of control	33 % of control	–	–	–	–	–	–
[Hca-Tyr^1, D-Arg^2, Phe(pCl)^6, Har^9, Tyr(Me)^10, Abu^15, Nle^27, D-Arg^28, Har^29, D-Arg^30]hGH-RH(1-29)NH2 [Peptide 58]	78 % of control and 94 % of control and 64 % of control	53 % of control and 41 % of control	56 % of control and 57 % of control and 59 % of control	47 % of control and 64 % of control and 50 % of control	64 % of control and 69 % of control	–	–	–	–	–	–
[PhAc-Tyr^1, D-Arg^2, Phe(pCl)^6, D-Ala^8, Arg^9, Abu^15, Nle^27, D-Arg^28, Har^29]hGH-RH(1-29)NH2 [Peptide 26]	20 % of control	43 % of control	66 % of control	48 % of control	44 % of control	–	–	–	–	–	–
